Here are results for 26 molecules from patent publication US8354414B2, “Substituted bicyclic pyrimidines” (Cephalon, Inc, priority 2006, dated 2013).

Read-outs that look alike come from different tables or passages of the source. Where only a bound is given, the exact number is not on record here.

Usually IC50 stands for the concentration at which inhibition is half-maximal. The melting point is the temperature of the solid-liquid transition. In general, inhibition refers to the relative decrease from the control value, in per cent.

One data set deals with T1, His6-GSK-3β (Homo sapiens, UniProt P49841).
T1 construct: made in house; host or cells: Sf21 insect cells (baculovirus)
T1 sequence (P49841 2-419): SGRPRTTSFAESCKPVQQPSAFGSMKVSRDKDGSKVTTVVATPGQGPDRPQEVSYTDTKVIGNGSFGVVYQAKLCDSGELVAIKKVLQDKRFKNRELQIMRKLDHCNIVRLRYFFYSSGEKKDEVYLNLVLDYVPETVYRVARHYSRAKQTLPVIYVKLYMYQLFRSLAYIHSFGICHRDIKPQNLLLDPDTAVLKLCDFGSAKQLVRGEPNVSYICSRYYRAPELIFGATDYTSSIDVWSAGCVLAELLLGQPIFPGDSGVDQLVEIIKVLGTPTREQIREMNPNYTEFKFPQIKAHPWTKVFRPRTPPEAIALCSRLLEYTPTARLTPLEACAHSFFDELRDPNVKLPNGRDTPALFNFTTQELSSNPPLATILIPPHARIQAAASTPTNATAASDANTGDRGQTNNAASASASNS
Put plainly: Inhibition of His6-GSK-3β kinase activity (ELISA-based format, time-resolved fluorescence readout). It counts as biochemical. The note with it: read-out: GSK3β IC50. Summed up:
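N-terminal His6-tagged full-length human GSK-3β (aa 2-419) expressed in Sf21 cells, 200 ng/ml, phosphorylating plate-coated GST-Rb with 20 μM ATP in pH 7.2 HEPES buffer, 30 min at 37° C. Phospho-Rb (Ser-780) detected by antibody plus Eu-labelled secondary, time-resolved fluorescence; IC50 from curves.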
Background: ELISA stands for enzyme-linked immunosorbent assay.

Another data set deals with T2, CDK5/GST-p25 (Homo sapiens, UniProt Q00535).
T2 construct: The final construct, encoding for full-length human CDK5; made in house; host or cells: Sf21 insect cells (baculovirus co-infection)
T2 sequence (Q00535 whole entry): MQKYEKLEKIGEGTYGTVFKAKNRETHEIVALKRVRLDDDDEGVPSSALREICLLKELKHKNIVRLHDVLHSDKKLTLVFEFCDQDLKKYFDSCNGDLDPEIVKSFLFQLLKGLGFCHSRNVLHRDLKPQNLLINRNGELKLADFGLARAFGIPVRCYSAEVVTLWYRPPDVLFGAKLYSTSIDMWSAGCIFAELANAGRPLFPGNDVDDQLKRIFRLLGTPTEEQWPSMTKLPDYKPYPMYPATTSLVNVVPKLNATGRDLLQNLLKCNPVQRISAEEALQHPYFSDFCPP
T2 sequence (Q15078 108-307 partner limits assumed): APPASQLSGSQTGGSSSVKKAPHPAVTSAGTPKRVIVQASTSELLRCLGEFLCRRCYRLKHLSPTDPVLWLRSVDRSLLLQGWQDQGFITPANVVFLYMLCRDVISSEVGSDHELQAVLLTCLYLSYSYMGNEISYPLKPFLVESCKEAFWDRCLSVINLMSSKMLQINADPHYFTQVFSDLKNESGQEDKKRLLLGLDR
Put plainly: Inhibition of CDK5/GST-p25 kinase activity (ELISA with time-resolved fluorescence readout). Format: biochemical. Summed up: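 Sf21-coexpressed full-length human CDK5 with GST-p25 (p35 aa 108-307), glutathione-purified, at 2 ng/ml was reacted for 20 min at 37 °C on plate-coated GST-Rb(773-928). Buffer was 20 mM HEPES pH 7.2, 10 µM ATP, 10 mM MgCl2 and 2.5% DMSO. Phospho-Rb Ser-780 was detected by Eu-labelled antibody TRF, and IC50 curves were fitted.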

For the molecule `O=C1Nc2ccc(C(F)(F)F)cc2C1c1ncnc2nn(C3CCCCC3)cc12` (stereo not drawn) [Example 53, 3-(2-Cyclohexyl-2H-pyrazolo [3,4-d]pyrimidin-4-yl)-5-trifluoromethyl-1,3-dihydro-indol-2-one], the melting point is > 300 °C. In addition, the IC50 on His6-GSK-3β (class symbols) fell in the range of 300 to 3000 nM. The IC50 against CDK5/GST-p25 (class symbols) was > 10000 nM.

For `CCCn1cc2c(C3C(=O)Nc4ccc(Br)cc43)ncnc2n1` (stereo not drawn) [Example 97, 5-Bromo-3-(2-propyl-2H-pyrazolo[3,4-d]pyrimidin-4-yl)-1,3-dihydro-indol-2-one], the melting point is > 300 °C. The half-maximal inhibitory concentration (IC50) at His6-GSK-3β (class symbols) was < 300 nM. Besides, the half-maximal inhibitory concentration (IC50) on CDK5/GST-p25 (class symbols) is < 300 nM.

Turning to `COCCN(CCOC)c1nc(C2C(=O)Nc3ccc(C#N)cc32)c2cn(C3CCCC3)nc2n1` (stereo not drawn) [Example 167, 3-{6-[bis-(2-methoxyethyl)amino]-2-cyclopentyl-2H-pyrazolo[3,4-d]pyrimidin-4-yl}-2-oxo-2,3-dihydro-1H-indole-5-carbonitrile], the melting point lay in the range of 248.5 to 249 °C. Besides, the IC50 on His6-GSK-3β (class symbols) is < 300 nM. The concentration for half-maximal inhibition (IC50) at CDK5/GST-p25 (numeric bounds) is > 3000 nM.

The molecule `O=C1Nc2c(F)cc(F)cc2C1c1ncnc2nn(C3CCCC3)cc12` (stereo not drawn) [Example 35, 3-(2-Cyclopentyl-2H-pyrazolo[3,4-d]pyrimidin-4-yl)-5,7-difluoro-1,3-dihydro-indol-2-one] yielded a melting point of 296 to 297 °C. Further, the IC50 at His6-GSK-3β (class symbols) lay in the range of 300 to 3000 nM. Also, on CDK5/GST-p25 (numeric bounds), the IC50 was > 3000 nM.

`O=C1Nc2ccccc2C1c1ncnc2nn(C3CCCC3)cc12` (stereo not drawn) [Example 37, 3-(2-Cyclopentyl-2H-pyrazolo[3,4-d]pyrimidin-4-yl)-1,3-dihydro-indo-2-one] returned a melting point of 289 to 292 °C. The half-maximal inhibitory concentration (IC50) on His6-GSK-3β (class symbols) lay within 300 to 3000 nM. In addition, the half-maximal inhibitory concentration (IC50) at CDK5/GST-p25 (class symbols) lay within 300 to 3000 nM.

For `C[C@@H](O)CNc1nc(C2C(=O)Nc3ccc(Cl)cc32)c2cn(C3CCCC3)nc2n1` (stereo partly drawn) [Example 375], the melting point was > 300 °C. Further, at His6-GSK-3β (class symbols), the IC50 is < 300 nM. Moreover, the inhibition at 10 µM on CDK5/GST-p25 is 62%.

The molecule `O=C1Nc2ccccc2C1c1nc(NCCc2ccccn2)nc2nn(C3CCCC3)cc12` (stereo not drawn) [Example 242, 3-[2-Cyclopentyl-6-(2-pyridin-2-yl-ethylamino)-2H-pyrazolo[3,4-d]pyrimidin-4-yl]-1,3-dihydro-indol-2-one] displayed a melting point of 246 to 248 °C. Moreover, the concentration for half-maximal inhibition (IC50) at His6-GSK-3β (class symbols) fell in the range of 300 to 3000 nM. On CDK5/GST-p25, this molecule returned an inhibition at 10 µM of 43%.

`CC(=O)NCCNc1nc(C2C(=O)Nc3ccc(Cl)cc32)c2cn(C3CCCC3)nc2n1` (stereo not drawn) [Example 276, N-{2-[4(5-Chloro-2-oxo-2,3-dihydro-1H-indol-3-yl)-2-cyclopentyl-2H-pyrazolo[3,4-d]pyrimidin-6-ylamino]-ethyl}-acetamide] gave a melting point of 209 to 226 °C. For the same molecule, at His6-GSK-3β (class symbols), the IC50 was < 300 nM. The same molecule yielded an IC50 against CDK5/GST-p25 (class symbols) of 300 to 3000 nM.

The molecule `CC(C)CNc1nc(C2C(=O)Nc3ccc(Cl)cc32)c2cn(C3CCCC3)nc2n1` (stereo not drawn) [Example 280, 5-Chloro-3-(2-cyclopentyl-6-isobutylamino-2H-pyrazolo[3,4-d]pyrimidin-4-yl)-1,3-dihydro-indol-2-one] yielded a melting point of 282 to 286 °C. Moreover, the IC50 on His6-GSK-3β (class symbols) is < 300 nM. For the same molecule, the IC50 against CDK5/GST-p25 (class symbols) was > 10000 nM.

Regarding `CCCCCn1cc2c(C3C(=O)Nc4ccc(C#N)cc43)nc(NC(C)C)nc2n1` (stereo not drawn) [Example 295, 3-(6-Isopropylamino-2-pentyl-2H-pyrazolo[3,4-d]pyrimidin-4-yl)-2-oxo-2,3-dihydro-1H-indole-5-carbonitrile], the melting point was 199 °C (dec.). For the same molecule, on His6-GSK-3β (class symbols), the IC50 is < 300 nM. Further, the concentration for half-maximal inhibition (IC50) at CDK5/GST-p25 (class symbols) was < 300 nM.

For the molecule `CC(C)Cn1cc2c(C3C(=O)Nc4ccc(Br)cc43)nc(NCCN3CCOCC3)nc2n1` (stereo not drawn) [Example 264, 5-Bromo-3-[2-isobutyl-6-(2-morpholin-4-yl-ethylamino)-2H-pyrazolo[3,4-d]pyrimidin-4-yl]-1,3-dihydro-indol-2-one], the melting point was 282 to 287 °C. Further, the concentration for half-maximal inhibition (IC50) on His6-GSK-3β (class symbols) was < 300 nM. Besides, on CDK5/GST-p25 (class symbols), the IC50 is < 300 nM.

With `O=C1Nc2ccc(Br)cc2C1c1ncnc2nn(C3CCCCC3)cc12` (stereo not drawn) [Example 46, 5-Bromo-3-(2-cyclohexyl-2H-pyrazolo[3,4-d]pyrimidin-4-yl)-1,3-dihydro-indol-2-one], the melting point lay within 285 to 290 °C. The IC50 at His6-GSK-3β (class symbols) is < 300 nM. Besides, the IC50 on CDK5/GST-p25 (class symbols) was < 300 nM.

With `CC(C)Nc1nc(C2C(=O)Nc3ccccc32)c2cn(C3CCCC3)nc2n1` (stereo not drawn) [Example 245, 3-(2-Cyclopentyl-6-isopropylamino-2H-pyrazolo[3,4-d]pyrimidin-4-yl)-1,3-dihydro-indol-2-one], the melting point lay within 303 to 305 °C. For the same molecule, the IC50 on His6-GSK-3β (numeric bounds) was > 3000 nM. Further, the half-maximal inhibitory concentration (IC50) against CDK5/GST-p25 (class symbols) is > 10000 nM.

Molecule `CC(C)CNc1nc(C2C(=O)Nc3ccccc32)c2cn(C3CCCC3)nc2n1` (stereo not drawn) [Example 244, 3-(2-Cyclopentyl-6-isobutylamino-2H-pyrazolo[3,4-d]pyrimidin-4-yl)-1,3-dihydro-indol-2-one] had a melting point of 280 to 282 °C. The 50% inhibitory concentration (IC50) at His6-GSK-3β (numeric bounds) was > 1000 nM. Further, the half-inhibitory concentration (IC50) against CDK5/GST-p25 (class symbols) was > 10000 nM.

Consider `CCCCCn1cc2c(C3C(=O)Nc4ccc(C(F)(F)F)cc43)nc(NCCN)nc2n1` (stereo not drawn) [Example 288, 3-[6-(2-Amino-ethylamino)-2-pentyl-2H-pyrazolo [3,4-d]pyrimidin-4-yl]-5-trifluoromethyl-1,3-dihydro-indol-2-one], for which the melting point was 192 °C (dec.). In addition, the 50% inhibitory concentration (IC50) at His6-GSK-3β (class symbols) was < 300 nM. This molecule returned an IC50 against CDK5/GST-p25 (class symbols) of 300 to 3000 nM.

As to `O=C1Nc2ccc(F)c(F)c2C1c1ncnc2c1cnn2C1CCCC1` (stereo not drawn) [Example 67, 3-(1-Cyclopentyl-1H-pyrazolo[3,4-d]pyrimidin-4-yl)-4,5-difluoro-1,3-dihydro-indol-2-one], the melting point is > 300 °C. The concentration for half-maximal inhibition (IC50) at His6-GSK-3β (class symbols) was > 10000 nM. Also, the IC50 against CDK5/GST-p25 (class symbols) was > 10000 nM.

Consider `C[C@H](O)CNc1nc(C2C(=O)Nc3ccc(Br)cc32)c2cn(C3CCCC3)nc2n1` (stereo partly drawn) [Example 372], for which the melting point was > 300 °C. Further, the IC50 on His6-GSK-3β (class symbols) was < 300 nM. On CDK5/GST-p25, the inhibition at 10 µM came to 77%.

Take `CCCn1ncc2c(C3C(=O)Nc4ccc(C#N)cc43)ncnc21` (stereo not drawn) [Example 93, 3-(1-propyl-1H-pyrazolo[3,4-d]pyrimidin-4-yl)-2-oxo-2,3-dihydro-1H-indole-5-carbonitrile]: the melting point was > 300 °C. For the same molecule, the IC50 at His6-GSK-3β (class symbols) is > 10000 nM. At CDK5/GST-p25 (class symbols), the half-maximal inhibitory concentration (IC50) was > 10000 nM.

Turning to `O=c1[nH]c2ccccc2n1-c1ncnc2nn(C3CCCC3)cc12` [Example 44, 1-(2-Cyclopentyl-2H-pyrazolo[3,4-d]pyrimidin-4-yl)-1,3-dihydro-benzoimidazol-2-one], the melting point was in the range of 236 to 240 °C. The concentration for half-maximal inhibition (IC50) at His6-GSK-3β (class symbols) was > 10000 nM. The IC50 at CDK5/GST-p25 (class symbols) was > 10000 nM.

Turning to `O=C1Nc2ccc(C(F)(F)F)cc2C1c1nc(Cl)nc2nn(C3CCCC3)cc12` (stereo not drawn) [Example 153, 3-(6-Chloro-2-cyclopentyl-2H-pyrazolo [3,4-d]pyrimidin-4-yl)-5-trifluoromethyl-1,3-dihydro-indol-2-one], the melting point was > 300 °C. Further, the 50% inhibitory concentration (IC50) on His6-GSK-3β (numeric bounds) is > 3000 nM. Further, the IC50 against CDK5/GST-p25 (class symbols) is > 10000 nM.

`CCCn1cc2c(C3C(=O)Nc4ccc(Cl)cc43)ncnc2n1` (stereo not drawn) [Example 98, 5-Chloro-3-(2-propyl-2H-pyrazolo[3,4-d]pyrimidin-4-yl)-1,3-dihydro-indol-2-one] showed a melting point of 302 to 306 °C. Also, the IC50 on His6-GSK-3β (class symbols) was < 300 nM. For the same molecule, at CDK5/GST-p25 (class symbols), the half-inhibitory concentration (IC50) was < 300 nM.

In the case of `CC(C)n1cc2c(C3C(=O)Nc4ccc(Cl)cc43)ncnc2n1` (stereo not drawn) [Example 381, 5-Chloro-3-(2-isopropyl-2H-pyrazolo[3,4-d]pyrimidin-4-yl)-1,3-dihydro-indol-2-one], the melting point is > 300 °C. Besides, the 50% inhibitory concentration (IC50) on His6-GSK-3β (class symbols) lay in the range of 300 to 3000 nM. Also, at CDK5/GST-p25 (class symbols), the half-inhibitory concentration (IC50) was < 300 nM.

Turning to `COCCn1cc2c(C3C(=O)Nc4ccc(Br)cc43)nc(NCCN3CCOCC3)nc2n1` (stereo not drawn) [Example 234, 5-Bromo-3-[2-(2-methoxy-ethyl)-6-(2-morpholin-4-yl-ethylamino)-2H-pyrazolo[3,4-d]pyrimidin-4-yl]-1,3-dihydro-indol-2-one], the melting point is > 300 °C. On His6-GSK-3β (class symbols), the IC50 was < 300 nM. Moreover, the IC50 on CDK5/GST-p25 (class symbols) was < 300 nM.

As for `CCCCCn1cc2c(C3C(=O)Nc4ccc(C#N)cc43)nc(Cl)nc2n1` (stereo not drawn) [Example 291, 3-(6-Chloro-2-pentyl-2H-pyrazolo [3,4-d]pyrimidin-4-yl)-2-oxo-2,3-dihydro-1H-indole-5-carbonitrile], the melting point was 254 °C (dec.). Besides, the IC50 on His6-GSK-3β (class symbols) was in the range of 300 to 3000 nM. For the same molecule, at CDK5/GST-p25 (numeric bounds), the half-inhibitory concentration (IC50) was > 3000 nM.

For the molecule `CCCCCn1cc2c(C3C(=O)Nc4ccc(C#N)cc43)nc(NCc3ccncc3)nc2n1` (stereo not drawn) [Example 292, 2-Oxo-3-{2-pentyl-6-[(pyridin-4-ylmethyl)-amino]-2H-pyrazolo [3,4-d]pyrimidin-4-yl}-2,3-dihydro-1H-indole-5-carbonitrile], the melting point is 288 to 290 °C (dec.). Besides, on His6-GSK-3β (class symbols), the IC50 is < 300 nM. Moreover, the IC50 against CDK5/GST-p25 (class symbols) is < 300 nM.

In turn, `COCCn1cc2c(C3C(=O)Nc4ccc(Br)cc43)nc(NCc3cccnc3)nc2n1` (stereo not drawn) [Example 232, 5-Bromo-3-{2-(2-methoxy-ethyl)-6-[(pyridin-3-ylmethyl)-amino]-2H-pyrazolo[3,4-d]pyrimidin-4-yl}-1,3-dihydro-indol-2-one] came in with a melting point of 300 to 301 °C. For the same molecule, the IC50 on His6-GSK-3β (class symbols) was < 300 nM. Further, the IC50 on CDK5/GST-p25 (class symbols) was < 300 nM.
